{"source": "patent US20130085073A1", "about": "“CONTINUOUS EXTENSION AND DEBLOCKING IN REACTIONS FOR NUCLLEIC ACIDS SYNTHESIS AND SEQUENCING” (ILLUMINA CAMBRIDGE LIMITED, priority 2011, published 2013)", "key": {"[1]": {"test": "Fluorescence emission of quencher/dye labelled nucleotide", "assay_type": "physicochemical", "experimental": "The fluorescence emission of an approx. 4 μM solution of the quencher/dye labelled nucleotide 22, a 4 μM solution of Atto532 dye and an equimolar mixture of Atto532 dye and quencher labelled nucleotide 21 (4 μM) were measured in 10 mM Tris buffer pH 8.0, between 500 nm and 700 nm (excitation wavelength: 532 nm) (FIG. 23). The fluorescence of the nucleotide 22 was approximately 1500-fold lower than that of the free dye in solution, and approximately 1100-fold lower than the equimolar solution of the free dye and the quencher labelled nucleotide 21."}, "Bst": {"target": "T1, Bst (Geobacillus stearothermophilus, UniProt P52026)", "T1 sequence (P52026 1-876)": "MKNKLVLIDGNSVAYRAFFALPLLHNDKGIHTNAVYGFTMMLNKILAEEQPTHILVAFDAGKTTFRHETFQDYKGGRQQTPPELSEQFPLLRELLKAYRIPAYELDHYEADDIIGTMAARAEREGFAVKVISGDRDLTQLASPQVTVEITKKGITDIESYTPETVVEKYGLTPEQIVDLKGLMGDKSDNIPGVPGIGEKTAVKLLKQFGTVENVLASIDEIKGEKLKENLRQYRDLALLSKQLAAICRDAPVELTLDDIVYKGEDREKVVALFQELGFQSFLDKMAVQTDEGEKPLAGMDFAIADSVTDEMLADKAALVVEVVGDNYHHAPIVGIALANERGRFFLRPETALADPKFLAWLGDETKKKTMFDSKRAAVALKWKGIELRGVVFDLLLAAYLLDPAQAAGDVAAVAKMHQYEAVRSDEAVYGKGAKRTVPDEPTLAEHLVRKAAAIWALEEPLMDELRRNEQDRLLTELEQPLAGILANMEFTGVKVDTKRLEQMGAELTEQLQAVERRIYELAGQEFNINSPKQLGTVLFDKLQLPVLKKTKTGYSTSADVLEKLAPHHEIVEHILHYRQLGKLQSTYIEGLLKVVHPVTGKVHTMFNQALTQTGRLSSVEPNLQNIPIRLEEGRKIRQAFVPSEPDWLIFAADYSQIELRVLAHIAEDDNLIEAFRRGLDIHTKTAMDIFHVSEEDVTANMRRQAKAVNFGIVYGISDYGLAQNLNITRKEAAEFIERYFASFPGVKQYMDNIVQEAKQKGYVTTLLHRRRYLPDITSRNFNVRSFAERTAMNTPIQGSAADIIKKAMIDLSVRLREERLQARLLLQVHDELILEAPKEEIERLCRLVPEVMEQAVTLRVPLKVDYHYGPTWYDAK", "test": "Bst polymerase primer extension with blocked nucleotide analog (gel analysis)", "assay_type": "biochemical", "experimental": "Incorporation of gamma hexynyl-pppT3′PO4Me2 was tested in Pol buffer at 65° C. with 10 μM nucleotide and 15 μg/mlpolymerase (Pol217 or Bst). A time zero sample was removed before initiation of the reaction with nucleotide and aliquots were quenched for gel analysis at 0.33, 0.66, 1, 2, 5 and 15 minutes. After 15 minutes, 5 μl of 100 μM dNTPs was added to the remaining reaction tubes (˜20 μl) and incubation continued for 10 mins before a chase aliquot was taken for gel analysis. Thus, for each polymerase there was a time course of 0, 0.33, 0.66, 1, 2, 5, 15 mins and chase shown from left to right across the gel in FIG. 13."}, "Pol 217": {"system": "Pol 217", "test": "Pol 217 catalyzed primer extension: incorporation of blocked nucleotide analog into primer DNA (urea gel analysis)", "assay_type": "biochemical", "conditions": "for incorporation of phosphodiester blocked nucleotides by Pol 217: nucleotide 10 μM", "experimental": "Pol 217 (15 μg/ml) was incubated at 30° C. in Pol buffer (50 mM TRIS pH 7.5, 0.05% Tween 20, 6 mM MgSO4, 1 mM EDTA, 50 mM NaCl) with 20 nM DNA (P21 primer annealed to Diff template AG). A time zero aliquot was taken for each concentration and then pppT3′PO4(EO2 was added at 10, 5, 2 or 1 μM final concentration to start the reaction. Tubes are incubated at 30° C. and aliquots were taken at 0.33, 0.66, 1, 2, 5, and 15 mins from the 4 reaction tubes for quenching and 15% urea acrylamide gel analysis. 1 mM dNTPs were added to the remaining 4 reaction tubes and after a further 10 mins an aliquot was taken for gel analysis (chase).\nPol 217 was tested in Pol buffer at 55° C.\nIncorporation of gamma hexynyl-pppT3′PO4Me2 was tested in Pol buffer at 65° C. with 10 μM nucleotide and 15 μg/mlpolymerase (Pol217 or Bst). A time zero sample was removed before initiation of the reaction with nucleotide and aliquots were quenched for gel analysis at 0.33, 0.66, 1, 2, 5 and 15 minutes."}, "Endonuclease IV": {"target": "Endonuclease IV (Escherichia coli, UniProt P0A6C1)", "conditions": "0.1 mM nucleotide, 500 units/mL Endonuclease IV, 37° C., pH 7.9, up to 3 days", "text": "Aliquots were taken at set time points and analyzed by HPLC chromatography."}, "Klenow": {"target": "T2, Klenow (Escherichia coli, UniProt P00582)", "T2 construct": "Bst, Vent exo- and Klenow polymerases were tested", "T2 sequence (P00582 324-928)": "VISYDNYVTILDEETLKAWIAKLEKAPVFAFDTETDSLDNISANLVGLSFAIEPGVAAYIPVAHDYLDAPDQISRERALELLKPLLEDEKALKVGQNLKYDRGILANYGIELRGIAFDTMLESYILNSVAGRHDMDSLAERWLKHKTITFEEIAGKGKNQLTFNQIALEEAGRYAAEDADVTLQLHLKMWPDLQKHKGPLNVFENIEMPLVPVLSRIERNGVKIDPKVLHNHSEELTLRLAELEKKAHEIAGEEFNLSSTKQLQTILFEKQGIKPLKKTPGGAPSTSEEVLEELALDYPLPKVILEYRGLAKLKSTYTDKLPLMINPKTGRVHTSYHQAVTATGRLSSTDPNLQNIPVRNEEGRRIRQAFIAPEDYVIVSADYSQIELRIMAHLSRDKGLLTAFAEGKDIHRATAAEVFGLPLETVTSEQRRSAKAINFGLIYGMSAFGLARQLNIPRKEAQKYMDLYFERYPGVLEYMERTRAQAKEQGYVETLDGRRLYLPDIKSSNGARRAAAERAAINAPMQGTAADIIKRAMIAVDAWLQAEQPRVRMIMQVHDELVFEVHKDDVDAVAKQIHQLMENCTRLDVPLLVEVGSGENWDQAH", "test": "Klenow polymerase primer extension with blocked nucleotide analog (gel analysis)", "assay_type": "biochemical", "conditions": "conditions tested; chase lane showed active polymerase"}, "E. coli EndoIV": {"target": "E. coli EndoIV (Escherichia coli, UniProt P0A6C1)", "conditions": "for EndoIV removal of phosphotriester blocking moiety from primer DNA extended with the nucleotide: large quantities of E. coli EndoIV, 37° C. or 55° C., extended incubation times", "description": "Primer DNA with either a 3′ PO4PrOH block (−ve and EndoIV) or a free 3′OH (+ve) was radiolabelled and bound to an A template strand. […] Aliquots were removed at 0, 5, 15, 30 and 60 min for quenching and gel analysis (left to right respectively). “+ve” is the time course for unblocked DNA plus EndoIV, “EndoIV” is blocked DNA plus E. coli EndoIV and “−ve” is blocked DNA without E. coli EndoIV.\nSimilar reactions to those described above in the context of FIG. 7 were conducted, but the blocked extension products were generated using Pol 217 to incorporate various phosphotriester nucleotides onto the primer DNA. […] Phosphotriester blocking moieties tested included pppT3′PO4(Et)2, pppT3′PO4(Et)(Pr-Cap), pppT3′PO4(Et)(PrOH), pppT3′PO4MeBu and pppT3′PO4(Et)(SSOH).\nA ^33P biotinylated 10 A template hairpin (62mer) was bound to magnetic streptavidin beads (4 pmoles) (1) and incubated with Pol217 (15 μg/ml) in Pol buffer and 10 μM pppT3′PO4MeBu for 10 mins at 55° C. […] The DNA was then removed to a magnet and washed twice in 1×B+W buffer (5 mM TRIS pH 7.5, 0.5 mM EDTA, 1M NaCl) and then washed twice in Ada buffer (50 mM TRIS pH 8.3, 1 mM EDTA, 3 mM DTT, 1 mg/ml BSA). The DNA was then incubated in Ada buffer with Ada protein (225 pmoles) at 37° C. for 3 h (3). The DNA was then removed to a magnet and washed twice in 1×B+W and then twice in NEB 3 buffer and then divided into 2 aliquots. To one aliquot (4) (2 pmoles) was added Pol 217 (15 μg/ml), E. coli EndoIV 10 U and FFT (5 μM) in NEB 3 buffer to a total volume of 100 μl. The sample was incubated at 37° C. and at time points of 0, 3, 10, 30, 60 and 120 mins a 5 μl sample was removed and quenched for 12% gel analysis. After 120 mins 10 μl of 100 μM dNTP was added to the remaining sample to chase the primer to the end (if not blocked) and an aliquot was taken and quenched after a further 20 mins at 37° C. […] The second aliquot (2 pmoles) was treated similarly, but no E. coli Endo IV was added to the reaction mixture (w/o EndoIV).\nEight pmoles of biotinylated 10 A hairpin DNA (62mer) bound to magnetic streptavidin beads (1) was incubated with Pol 217 (15 μg/ml) in Pol buffer with 10 μM pppT3′PO4(Et)(SSOH) in 200 μl at 55° C. for 15 mins (2). Then 2 μl of 100 mM tri(hydroxylpropyl)phosphine (THP) was added to the tube and the samples incubated for a further 5 mins at 55° C. […] The DNA was then removed to a magnet and washed twice in 1×B+W and twice in NEB 3 buffer. The DNA was then divided into two aliquots. To the first aliquot (4 pmoles) was added 4 U E. coli EndoIV, 15 μg/ml Pol 217, 10 μM pppT3′PO4MeBu in 100 μl of NEB3 buffer (4) and the other aliquot (4 pmoles) had the same additions but no EndoIV (w/o EndoIV). At time points of 0, 1, 5, 10, 30, 60 and 120 mins and sample was removed and quenched for 12% gel analysis."}, "Vent exo-": {"target": "Vent exo- (Thermococcus litoralis, UniProt P30317, D141A/DEL1082-1471/DEL495-1032/E143A)", "sequence (P30317 other isoform, or with tags, fused parts or gaps D141A/E143A/DEL495-1032/DEL1082-1471)": "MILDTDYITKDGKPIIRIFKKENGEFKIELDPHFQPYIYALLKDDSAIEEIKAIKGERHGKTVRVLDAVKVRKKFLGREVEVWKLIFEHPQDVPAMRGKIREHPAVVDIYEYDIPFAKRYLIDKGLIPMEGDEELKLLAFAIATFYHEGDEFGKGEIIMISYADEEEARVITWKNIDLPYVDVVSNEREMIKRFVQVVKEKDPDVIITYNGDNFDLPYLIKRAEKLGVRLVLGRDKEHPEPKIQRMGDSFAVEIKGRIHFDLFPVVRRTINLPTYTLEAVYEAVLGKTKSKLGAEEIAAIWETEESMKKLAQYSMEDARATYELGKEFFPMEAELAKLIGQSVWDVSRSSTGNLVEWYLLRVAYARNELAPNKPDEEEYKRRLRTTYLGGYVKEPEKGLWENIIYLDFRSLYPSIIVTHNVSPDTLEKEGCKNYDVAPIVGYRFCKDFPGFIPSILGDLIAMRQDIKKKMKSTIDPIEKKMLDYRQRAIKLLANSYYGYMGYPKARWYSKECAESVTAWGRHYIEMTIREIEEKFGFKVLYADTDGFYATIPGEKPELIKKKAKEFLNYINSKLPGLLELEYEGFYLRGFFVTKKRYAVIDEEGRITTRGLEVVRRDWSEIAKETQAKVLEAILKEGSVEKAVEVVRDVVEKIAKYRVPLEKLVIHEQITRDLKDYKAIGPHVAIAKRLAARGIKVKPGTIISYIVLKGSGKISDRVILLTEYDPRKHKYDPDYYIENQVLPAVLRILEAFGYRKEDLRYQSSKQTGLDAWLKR", "test": "Vent exo- polymerase primer extension with blocked nucleotide analog (gel analysis)", "assay_type": "biochemical", "conditions": "conditions tested; chase lane showed active polymerase"}, "Pol 427": {"system": "Pol 427", "test": "Pol 427 catalyzed primer extension: incorporation of blocked nucleotide analog (gel analysis)", "assay_type": "biochemical", "conditions": "Pol buffer, 37° C., 1 h, Pol 427 30 μg/ml"}, "[2]": {"system": "Pol 217, E. coli Endo IV, Ada protein", "test": "Single pot multi-cycle extension with Pol 217, Ada protein and Endo IV (gel)", "assay_type": "biochemical", "conditions": "37° C., 10 μM nucleotide", "experimental": "A tube was incubated at 37° C. containing Pol 217 (15 μg/ml-16.5 pmoles), E. coli Endo IV (10 U), Ada protein (1000 pmoles) in 100 μl of 50 mM TRIS pH 8.0, 1 mg/ml BSA, 50 mM NaCl, 10 mM MgSO4 with 2 pmoles of primer (21mer) annealed to 10 A template DNA. After a time zero aliquot was removed and quenched for gel analysis, the reaction was started by the addition of 10 μM pppT3′PO4MeBu. At time points of 10, 30, 60, 120 and 240 minutes an aliquot was removed and quenched for gel analysis. Negative controls are shown where one protein was left out of the mixture in turn. A positive control for incorporation is shown of 10 μM FFT."}, "[3]": {"conditions": "approx. 4 μM, 10 mM Tris pH 8.0, excitation 532 nm"}}, "data": [{"compound": "5′-(γ-(BHQ2-peg3)triphosphate) 3′-(O-(12-(Atto532)amidododecyl)phosphate)thymidine [nucleotide 22]", "values": [{"measurement": "fluorescence lower than that of the free dye (Atto532) in solution", "setting": "[1]; [3]", "result": "approximately 1500 fold"}, {"measurement": "fluorescence lower than the equimolar solution of free dye and quencher labelled nucleotide 21", "setting": "[1]; [3]", "result": "approximately 1100 fold"}, {"measurement": "quenching of fluorescence emission by BHQ2", "setting": "[1]; dye and quencher both on the nucleotide", "result": "> 99", "unit": "%"}]}, {"compound": "5′-(γ-(BHQ2-peg3)triphosphate) 3′-(O-(12-aminododecyl)phosphate)thymidine [nucleotide 21]", "values": [{"measurement": "quenching of free Atto532 dye by quencher labelled nucleotide in equimolar mixture", "setting": "[1]; 4 μM each, 10 mM Tris pH 8.0, excitation 532 nm", "result": "does not quench efficiently"}]}, {"compound": "C#CCCCCOP(=O)(O)OP(=O)(O)OP(=O)(O)OCC1OC(n2cc(C)c(=O)[nH]c2=O)CC1OP(=O)(OC)OC", "note": "(stereo not drawn) [gamma hexynyl-pppT3′PO4Me2, 5′-(γ-(5-hexynyl)triphosphate) 3′-(O,O′-dimethyl phosphate) thymidine]", "values": [{"measurement": "band for extended primer with Bst", "setting": "Bst; Pol buffer, 65° C., 10 μM nucleotide", "result": "absent"}, {"measurement": "incorporation by Pol 217 and chase", "setting": "Pol 217; Pol buffer, 65° C., 10 μM nucleotide, 0-15 min then dNTP chase", "result": "an incorporation band of n+1 was generated over time which did not chase away"}]}, {"compound": "CCOP(=O)(O)OC1CC(n2cc(C)c(=O)[nH]c2=O)OC1COP(=O)(O)O", "note": "(stereo not drawn) [pT-3′PO4Et, 5′ monophosphate T-3′PO4Et]", "values": [{"measurement": "removal of 3′ phosphodiester blocking moiety from free nucleotide by EndoIV (HPLC)", "setting": "Endonuclease IV", "result": "No deblocked pT-3′PO4Et was observed even after 3 days"}]}, {"compound": "CCOP(=O)(OCC)O[C@H]1C[C@H](n2cc(C)c(=O)[nH]c2=O)O[C@@H]1COP(=O)(O)OP(=O)(O)OP(=O)(O)O", "note": "[pppT3′PO4(Et)2, 5′-triphosphate 3′-(O,O′-diethyl phosphate) thymidine]", "values": [{"measurement": "incorporation by Bst polymerase", "setting": "Bst; conditions tested, chase lane showed active polymerase", "result": "did not show any incorporation bands"}, {"measurement": "incorporation by Klenow polymerase", "setting": "Klenow", "result": "did not show any incorporation bands"}, {"measurement": "EndoIV removal of phosphotriester blocking moiety from primer DNA extended with the nucleotide", "setting": "E. coli EndoIV", "result": "failed to allow subsequent incorporation"}, {"measurement": "extension of primer after chase with natural dNTPs (3′ block)", "setting": "Pol 217; 30° C., 1 mM dNTPs chase, 10 mins", "result": "creates a 3′ blocked primer"}, {"measurement": "incorporation into primer DNA by Pol 217 (n+1 band)", "setting": "Pol 217; 30° C., Pol buffer, nucleotide 10, 5, 2 or 1 μM, 20 nM DNA, 0-15 min", "result": "extension by one base"}, {"measurement": "time to complete incorporation by Pol217", "setting": "Pol 217; 65° C., incorporation buffer, 10 μM nucleotide", "result": "≤ 20", "unit": "s"}, {"measurement": "incorporation by Vent exo- polymerase", "setting": "Vent exo-", "result": "did not show any incorporation bands"}]}, {"compound": "CCOP(=O)(OCc1cc2c(cc1[N+](=O)[O-])OCO2)O[C@H]1C[C@H](n2cc(C)c(=O)[nH]c2=O)O[C@@H]1COP(=O)(O)OP(=O)(O)OP(=O)(O)O", "note": "(stereo partly drawn) [pppT3′PO4(Et)(NPIP), 5′-triphosphate 3′-(O-ethyl, O′-(6-nitropiperonyl)phosphate) thymidine]", "values": [{"measurement": "incorporation into primer by Pol 427", "setting": "Pol 427", "result": "converted to n+1"}]}, {"compound": "CCOP(=O)(OCCCO)OC1CC(n2cc(C)c(=O)[nH]c2=O)OC1COP(=O)(O)OP(=O)(O)OP(=O)(O)O", "note": "(stereo not drawn) [pppT3′PO4(Et)(PrOH)]", "values": [{"measurement": "EndoIV removal of phosphotriester blocking moiety from primer DNA extended with the nucleotide", "setting": "E. coli EndoIV", "result": "failed to allow subsequent incorporation"}]}, {"compound": "CCOP(=O)(O)O[C@H]1C[C@H](n2cc(C)c(=O)[nH]c2=O)O[C@@H]1COP(=O)(O)OP(=O)(O)OP(=O)(O)O", "note": "[pppT3′PO4Et, 5′ triphosphate 3′ (O-ethyl phosphate) thymidine]", "values": [{"measurement": "incorporation of phosphodiester blocked nucleotides by Pol 217", "setting": "Pol 217; Pol buffer, 55° C.", "result": "low level incorporation was observed"}]}, {"compound": "CCCCOP(=O)(OC)O[C@H]1C[C@H](n2cc(C)c(=O)[nH]c2=O)O[C@@H]1COP(=O)(O)OP(=O)(O)OP(=O)(O)O", "note": "(stereo partly drawn) [pppT3′PO4MeBu, 5′ triphosphate 3′ (O-methyl, O′-butyl phosphate) thymidine]", "values": [{"measurement": "EndoIV unblocking of extended primer after Ada protein treatment", "setting": "E. coli EndoIV; Ada protein 37° C. 3 h, then E. coli EndoIV 10 U, Pol 217, FFT, 37° C., 0-120 mins", "result": "unblocked by EndoIV"}, {"measurement": "EndoIV removal of phosphotriester blocking moiety from primer DNA extended with the nucleotide", "setting": "E. coli EndoIV", "result": "failed to allow subsequent incorporation"}, {"measurement": "incorporation into 10 A hairpin DNA on streptavidin beads by Pol 217", "setting": "Pol 217; Pol buffer, 55° C., 10 μM nucleotide, 10-15 mins", "result": "converted to n+1"}, {"measurement": "length of extension product in single pot reaction, all three proteins present", "setting": "[2]; 10-240 minutes", "result": "gradually increased over the time course from n+1 to n+2, then n+3, then n+4"}, {"measurement": "incorporation in single pot reaction in the absence of Ada or EndoIV", "setting": "[2]; no Ada or no EndoIV", "result": "a single incorporation event occurred"}]}, {"compound": "Cc1cn(C2CC(OP(=O)(O)OCCCO)C(COP(=O)(O)OP(=O)(O)OP(=O)(O)O)O2)c(=O)[nH]c1=O", "note": "(stereo not drawn) [pppT3′PO4PrOH]", "values": [{"measurement": "incorporation of phosphodiester blocked nucleotides by Pol 217", "setting": "Pol 217; Pol buffer, 55° C.", "result": "substantial incorporation was not observed"}]}, {"compound": "Cc1cn(C2CC(OP(=O)(O)O)C(COP(=O)(O)OP(=O)(O)OP(=O)(O)O)O2)c(=O)[nH]c1=O", "note": "(stereo not drawn) [pppT 3′PO4]", "values": [{"measurement": "incorporation of phosphodiester blocked nucleotides by Pol 217", "setting": "Pol 217; Pol buffer, 55° C.", "result": "incorporation was observed but the band on the gel chased away"}]}]}
